What is called viability is a per cent measure of how many cells are alive, often set against a control. As usually defined, the CC50 is the concentration that lowers cell viability or growth by half. A low value points to harm at low concentration.

These results are taken from article PMC12406664, “New derivatives of 6-nitrocoumarin-3-thiosemicarbazone exhibit improved antiparasitic activity in the placenta against Trypanosoma cruzi and Toxoplasma gondii” (Antimicrobial Agents and Chemotherapy, 2025).

Data set [1] concerns T. cruzi trypomastigotes, Dm28 strain. The data set is described as follows: Resazurin viability assay on free T. cruzi trypomastigotes. To be noted: Trypanosoma cruzi, 24 h, read-out: Viability T. cruzi (%). The method in brief:
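Free Dm28 T. cruzi trypomastigotes were exposed to compounds at 100 µM for 24 h, with nifurtimox as positive control and untreated parasites as negative control. Resazurin (3 mM final) with 0.8 mM phenazine was then added for 3 h at 37°C, and fluorescence was read at 560/590 nm.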
On the technique in general: Resazurin is reduced to fluorescent resorufin, in cell work by metabolically active cells.

A short description of data set [2]: Cytotoxicity on cells (resazurin), BeWo. To be noted: human, BeWo trophoblast cells. The class given is cell-based. From the text:
Triton X-100 was used as a positive control, and untreated cells served as a negative control. In addition, the maximum concentration of DMSO was used as a control for the method. […] The obtained values were expressed as IC50([88]).

Data set [3] deals with T. gondii tachyzoites (strain RH). The experiment in a line: ESR spin trapping with DMPO in T. gondii. Type of data set: cell-based, Toxoplasma gondii. Conditions: compound about 1 mM, menadione 20 µM. As to the method: Each tested hybrid was dissolved in spectroscopy-grade DMSO at an approximate concentration of 1 mM and added to a mixture containing Trypanosoma cruzi (Dm28c strain) or Toxoplasma gondii at a density of 50 × 10⁶ trypomastigotes or tachyzoites per mL, along with DMPO at a final concentration of 250 mM. Menadione (20 µM) was used as a positive control.
All spectra were acquired on the same scale after 15 scans.

Data set [4] concerns T. gondii (RH strain) in BeWo cells. The data set is described as follows: T. gondii DNA load in infected BeWo cells by real-time qPCR. Type of data set: cell-based, Toxoplasma gondii. To be noted: IC50 concentration. The protocol:
Cells or HPE were exposed to parasites. […] The following treatment conditions were used in both infection models. […] Untreated cells or HPE served as a negative control, and the compounds’ activity was compared with the reference drugs (NFX and PMN).
Subsequently, cells were exposed to parasites at a 1:1 ratio (cell: parasite) for 24 hours. Finally, the cells were washed with PBS and harvested using trypsin. For the parasitic DNA load in the ex vivo infection model, HPE was incubated in 24-well plates and exposed to parasites at a concentration of 10^5 parasites/mL for 24 hours. Finally, they were washed with PBS and homogenized using the ultraturrax homogenizer OMNI TipTM. Genomic DNA was extracted from BeWo cells or HPE using the Wizard Genomic DNA Purification Kit (Promega, USA) following the manufacturer’s instructions. The resulting DNA was quantified using a μDrop Plate DNA quantification system on the Varioskan Flash multimode reader (Thermo Scientific, USA). For the amplification of human DNA and parasitic DNA, three pairs of primers specific for human GAPDH (hGADPH), T. cruzi satellite DNA, and T. gondii B1 gene DNA were used (Table 7). Each reaction mixture contained 0.5 µL of 10 nM of each primer (Forward and reverse), 1 ng of DNA from T. cruzi samples, 10 ng of DNA from T. gondii samples, 10 µL of SensiFASTTM SYBR Hi-ROX kit (Bioline, Heidelberg, Baden Württemberg, Germany), and ultrapure water (Sigma-Aldrich, St. Louis, MO, USA) for a total of 20 µL.
(§1) Amplification was carried out using the CFX96 Touch Deep Well Real-Time PCR Detection System (Biorad, California, USA) with the following cycling program: initial denaturation at 95°C for 3 min, followed by 40 cycles of denaturation at 95°C for 5 s, annealing at 60°C for 30 s, and a dissociation stage ranging from 60°C to 95°C. The relative quantification analysis of the results was expressed as RQ values using the comparative […] (∆∆Ct) ([80]).
(Real-time PCR tracks product formation cycle by cycle.)

In data set [5] the test system is T. gondii (RH strain) in HPE. The data set is described as follows: T. gondii DNA load in infected human placental explants (HPE) by real-time qPCR. Type of data set: cell-based, Toxoplasma gondii. Conditions: 24 hour post-infection treatment, IC50 concentration. The protocol: The effect on HPE infection of compounds 1 and 7 by Toxoplasma gondii and Trypanosoma cruzi, respectively, was evaluated. To do this, the DNA of the T. gondii or T. cruzi parasite was quantified by infecting HPE for 24 hours under treatment conditions of co-incubation of compounds with the parasite at the same time of infection, and with a 24 hour post-infection treatment. The compound’s IC50 concentration value previously obtained under both conditions was used.
Term human placentas were obtained from uncomplicated pregnancies via scheduled cesarean sections. Each patient provided informed consent for the experimental use of the placenta, and the study was approved by the ethics committee of Hospital San José, Servicio Salud Metropolitano Norte (N° 013/2022). Exclusion criteria for placental use included significant fetal anomalies, placental tumors, intrauterine infection, positive serology for Chagas disease, obstetric pathology, and any other maternal disease. Donor patients tested negative for T. gondii IgG/IgM antibodies. Organs were collected in sterile, cold PBS and processed within 30 minutes after delivery. Maternal and fetal surfaces of each placenta were discarded, and the villous tissue from the central part of the placental cotyledons was isolated. […] All the experiments were performed in triplicate in at least three different placentas.
Cells or HPE were exposed to parasites. […]
Subsequently, cells were exposed to parasites at a 1:1 ratio (cell: parasite) for 24 hours. […] The resulting DNA was quantified using a μDrop Plate DNA quantification system on the Varioskan Flash multimode reader (Thermo Scientific, USA). […]
as §1

For data set [6], the system named is human placental explants (HPE). The data set is described as follows: Histopathology of uninfected HPE exposed to the compounds alone. To be noted: explants incubated only with the compound, 24 h, IC50 concentration. The protocol:
The HPE was fixed in 10% formaldehyde in 0.1 M phosphate buffer (pH 7.3) for 24 h, dehydrated in alcohol, clarified in xylene, embedded in paraffin, and sectioned at 3 µm. Paraffin histological sections were stained with hematoxylin-eosin for routine histological analysis, Picro Sirius red, and trichromic Masson for collagen histochemistry. Sections for the histological analysis were observed under an optical microscope (Leica DM500) and images were captured with a Leica ICC50 W camera ([7], [91]).

Data set [7] can be described thus: Lipophilicity by reversed-phase TLC (RM). To be noted: reverse phase-C18, DMSO/phosphate buffer pH 7.4 (70:30 vol/vol), RM = log[(1/Rf) – 1].
Method: Lipophilicity was studied by reversed-phase TLC experiments. Precoated TLC plates SIL RP-18W/UV254 were used and eluted with DMSO/physiological serum (70:30, vol/vol). Stock solutions were prepared in pure DMSO (Aldrich) prior to use. The plates were developed in a closed chromatographic tank, dried, and the spots were located under UV light. The Rf values were averaged from three determinations and converted into RM values via the relationship: RM = log [(1/Rf)−1]

Molecules are shown by their SMILES. Entries after “also recorded” stand apart in the source; their conditions may differ.

As to `C/C(=N\NC(N)=S)c1c(O)c2cc([N+](=O)[O-])ccc2oc1=O` [Compound 1, (E)−2-(1-(4-hydroxy-6-nitro-2-oxo-2H-chromen-3-yl)ethylidene)hydrazine-1-carbothioamide], the viability at 100 µM in data set [1] was found to be 85.5 ± 11.3%. In data set [2], this compound came in with a CC50 at 24 h of 386.9 ± 1 µM. Besides, in data set [3], the “radical species detected by ESR spin trapping (DMPO)” value is on record as “formation of only two spin adducts”. In addition, in data set [4] (co-incubation), the “decrease in parasite DNA load” value was “around 50%”. For the same compound, the “effect on parasite DNA load” value in data set [4] (post-infection treatment) is on record as “no activity against the intracellular form”; in data set [5], “not statistically significant; also recorded: did not reduce the parasitic load”. Besides, in data set [6], the “tissue damage caused by the compound itself in HPE” value is reported as “neither compound induced tissue damage”. In addition, the “Lipophilicity (RM)” value in data set [7] is given as 0.00.
